This note sets out measurements from patent US9414596B2, “Metalloenzyme inhibitor compounds” (Viamet Pharmaceuticals, Inc., priority 2012, dated 2016).

≈ marks a conversion by molar mass, not a printed value.

In the experiment the test system is Septoria tritici (ATCC 26517). The experiment can be described thus: Minimum Inhibitory Concentration (MIC) (Septoria tritici), CLSI-based microdilution. It counts as cell-based. Conditions: Zymoseptoria tritici, ATCC26517, 168 h, S. tritici ATCC 26517; seven days at 22° C. in the dark; MIC = 50% reduction in growth, visual; read-out: Septoria MIC Rating. On the procedure:
B. Minimum Inhibitory Concentration (MIC) (Septoria tritici)
Compounds of the present disclosure were assessed for their ability to inhibit the growth of a common strain of the fungal plant pathogen Septoria tritici (ATCC 26517) using a procedure based on a Clinical and Laboratory Standards Institute (CLSI) microdilution assay protocol for filamentous fungi.
Stock solutions of the test compounds and standards were prepared in DMSO at 6400 μg/mL. Each stock solution was used to prepare a 2-fold dilution series ranging from 16 to 0.016 μg/mL (total of 11 compound concentrations) in RPMI-1640 (Roswell Park Memorial Institute) medium containing 3-(N-morpholino)propanesulfonic acid (MOPS) buffer and 2% DMSO. A 100 μL aliquot of the dilutions was added to columns 1 (16 μg/mL compound) through 11 (0.016 μg/mL compound) of a 96-well microtiter plate. This format was replicated in a second row of the microtiter plate. Thus, each microtiter plate could include 11 concentrations of four test or control compounds replicated twice. A 100 μL aliquot of RPMI-1640/MOPS/2% DMSO medium was added to column 12 (no compound control) of the microtiter plate.
A fresh culture of S. tritici was used to prepare a solution of approximately 5×10^4 colony-forming units per milliliter (cfu/mL) in RPMI/MOPS medium without DMSO. A 100 μL aliquot of this solution was added to all 96 wells in the microtiter plate. […] The assay plates were incubated at 22° C. for seven days in the dark without shaking.
On the technique in general: Dilution methods test growth across graded concentrations, often in twofold steps.

For orientation: MIC means the smallest concentration in the dilution series that meets the test's criterion for growth inhibition. For the compound `N#Cc1ccc(-c2ccc(C(F)(F)C(O)(Cn3cnnn3)c3ccc(F)cc3F)nc2)cc1` (stereo not drawn) [Example 1, 4-(6-(2-(2,4-Difluorophenyl)-1,1-difluoro-2-hydroxy-3-(1H-tetrazol-1-yl)propyl)pyridin-3-yl)benzonitrile], the MIC was less than 0.5 µg/mL.
For `N#Cc1cccc(-c2ccc(C(F)(F)C(O)(Cn3cnnn3)c3ccc(F)cc3F)nc2)c1` (stereo not drawn) [Example 3, 3-(6-(2-(2,4-Difluorophenyl)-1,1-difluoro-2-hydroxy-3-(1H-tetrazol-1-yl)propyl)pyridin-3-yl)benzonitrile], the MIC lay within 1.5 to 4 µg/mL (≈ 3.3 to 8.8 µM).
The result for `CC(C)Oc1ccc(-c2ccc(C(F)(F)C(O)(Cn3cnnn3)c3ccc(F)cc3F)nc2)cc1` (stereo not drawn) [Example 4, 2-(2,4-Difluorophenyl)-1,1-difluoro-1-(5-(4-isopropoxyphenyl)pyridin-2-yl)-3-(1H-tetrazol-1-yl)propan-2-ol] reads less than 0.5 µg/mL.
Turning to `OC(Cn1cnnn1)(c1ccc(F)cc1F)C(F)(F)c1ccc(-c2ccc(F)cc2)cn1` (stereo not drawn) [Example 5, 2-(2,4-Difluorophenyl)-1,1-difluoro-1-(5-(4-fluorophenyl)pyridin-2-yl)-3-(1H-tetrazol-1-yl)propan-2-ol], the MIC was less than 0.5 µg/mL.
Take `OC(Cn1cnnn1)(c1ccc(F)cc1F)C(F)(F)c1ccc(-c2cccc(OC(F)(F)F)c2)cn1` (stereo not drawn) [Example 6, 2-(2,4-Difluorophenyl)-1,1-difluoro-3-(1H-tetrazol-1-yl)-1-(5-(3-(trifluoromethoxy)phenyl)-pyridin-2-yl)propan-2-ol]: the MIC is 1.5 to 4 µg/mL (≈ 2.92 to 7.79 µM).
For `OC(Cn1cnnn1)(c1ccc(F)cc1F)C(F)(F)c1ccc(-c2ccc(OC(F)(F)F)cc2)cn1` (stereo not drawn) [Example 7, 2-(2,4-Difluorophenyl)-1,1-difluoro-3-(1H-tetrazol-1-yl)-1-(5-(4-(trifluoromethoxy)phenyl)-pyridin-2-yl)propan-2-ol], the MIC is less than 0.5 µg/mL.
In the case of `OC(Cn1cnnn1)(c1ccc(F)cc1F)C(F)(F)c1ccc(-c2cccc(Cl)c2)cn1` (stereo not drawn) [Example 8, 1-(5-(3-Chlorophenyl)pyridin-2-yl)-2-(2,4-difluorophenyl)-1,1-difluoro-3-(1H-tetrazol-1-yl)propan-2-ol], the MIC is 0.5 to 1.5 µg/mL (≈ 1.08 to 3.23 µM).
For the compound `OC(Cn1cnnn1)(c1ccc(F)cc1F)C(F)(F)c1ccc(-c2ccc(Cl)cc2)cn1` (stereo not drawn) [Example 9, 1-(5-(4-Chlorophenyl)pyridin-2-yl)-2-(2,4-difluorophenyl)-1,1-difluoro-3-(1H-tetrazol-1-yl)propan-2-ol], the minimum inhibitory concentration (MIC) was less than 0.5 µg/mL.
On to `OC(Cn1cnnn1)(c1ccc(F)cc1F)C(F)(F)c1ccc(-c2cc(F)ccc2F)cn1` (stereo not drawn) [Example 10, 2-(2,4-Difluorophenyl)-1-(5-(2,5-difluorophenyl)pyridin-2-yl)-1,1-difluoro-3-(1H-tetrazol-1-yl)propan-2-ol], for which the MIC is less than 0.5 µg/mL.
The result for `OC(Cn1cnnn1)(c1ccc(F)cc1F)C(F)(F)c1ccc(-c2ccc(OCC(F)(F)F)cc2)cn1` (stereo not drawn) [Example 11, 2-(2,4-Difluorophenyl)-1,1-difluoro-3-(1H-tetrazol-1-yl)-1-(5-(4-(2,2,2-trifluoroethoxy)phenyl)pyridin-2-yl)propan-2-ol] reads less than 0.5 µg/mL.
For `OC(Cn1cncn1)(c1ccc(F)cc1F)C(F)(F)c1ccc(-c2ccc(F)cc2)cn1` (stereo not drawn) [Example 16, 2-(2,4-Difluorophenyl)-1,1-difluoro-1-(5-(4-fluorophenyl)pyridin-2-yl)-3-(1H-1,2,4-triazol-1-yl)propan-2-ol], the MIC is less than 0.5 µg/mL.
Take `OC(Cn1cncn1)(c1ccc(F)cc1F)C(F)(F)c1ccc(-c2ccc(OC(F)(F)F)cc2)cn1` (stereo not drawn) [Example 18, 2-(2,4-Difluorophenyl)-1,1-difluoro-3-(1H-1,2,4-triazol-1-yl)-1-(5-(4-(trifluoromethoxy)phenyl)pyridin-2-yl) propan-2-ol]: the MIC was less than 0.5 µg/mL.
For `OC(Cn1ncnn1)(c1ccc(F)cc1F)C(F)(F)c1ccc(-c2cccc(F)c2)cn1` (stereo not drawn) [Example 21], the MIC was more than 4 µg/mL.
For `OC(Cn1ncnn1)(c1ccc(F)cc1F)C(F)(F)c1ccc(-c2ccc(C(F)(F)F)cc2)cn1` (stereo not drawn) [Example 22] the value was more than 4 µg/mL; for `Oc1ccc(-c2ccc(C(F)(F)C(O)(Cn3cnnn3)c3ccc(F)cc3F)nc2)cc1` (stereo not drawn) [Example 23, 4-(6-(2-(2,4-Difluorophenyl)-1,1-difluoro-2-hydroxy-3-(1H-tetrazol-1-yl)propyl)pyridin-3-yl)phenol], 1.5 to 4 µg/mL (≈ 3.37 to 8.98 µM).
As for `CC(C)c1cccc(-c2ccc(C(F)(F)C(O)(Cn3cnnn3)c3ccc(F)cc3F)nc2)c1` (stereo not drawn) [Example 24, 2-(2,4-Difluorophenyl)-1,1-difluoro-1-(5-(3-isopropylphenyl)pyridin-2-yl)-3-(1H-tetrazol-1-yl)propan-2-ol], the minimal inhibitory concentration (MIC) fell in the range of 0.5 to 1.5 µg/mL (≈ 1.06 to 3.18 µM).
The result for `OC(Cn1cnnn1)(c1ccc(F)cc1F)C(F)(F)c1ccc(-c2ccc(F)c(F)c2)cn1` (stereo not drawn) [Example 25, 2-(2,4-Difluorophenyl)-1-(5-(3,4-difluorophenyl)pyridin-2-yl)-1,1-difluoro-3-(1H-tetrazol-1-yl)propan-2-ol] reads less than 0.5 µg/mL; that for `OC(Cn1cnnn1)(c1ccc(F)cc1F)C(F)(F)c1ccc(-c2cccc(OC(F)F)c2)cn1` (stereo not drawn) [Example 26, 1-(5-(3-(Difluoromethoxy)phenyl)pyridin-2-yl)-2-(2,4-difluorophenyl)-1,1-difluoro-3-(1H-tetrazol-1-yl)propan-2-ol], 0.5 to 1.5 µg/mL (≈ 1.01 to 3.03 µM).
Regarding `OC(Cn1cnnn1)(c1ccc(F)cc1F)C(F)(F)c1ccc(-c2ccc(SC(F)(F)F)cc2)cn1` (stereo not drawn) [Example 27, 2-(2,4-Difluorophenyl)-1,1-difluoro-3-(1H-tetrazol-1-yl)-1-(5-(4-((trifluoromethyl)thio)phenyl)pyridin-2-yl)propan-2-ol], the MIC was less than 0.5 µg/mL.
Turning to `CC(C)(C)Oc1ccc(-c2ccc(C(F)(F)C(O)(Cn3cnnn3)c3ccc(F)cc3F)nc2)cc1` (stereo not drawn) [Example 28, 1-(5-(4-(tert-Butoxy)phenyl)pyridin-2-yl)-2-(2,4-difluorophenyl)-1,1-difluoro-3-(1H-tetrazol-1-yl)propan-2-ol], the MIC is less than 0.5 µg/mL.
For the compound `OC(Cn1cnnn1)(c1ccc(F)cc1F)C(F)(F)c1ccc(-c2ccc(Cl)c(F)c2)cn1` (stereo not drawn) [Example 29, 1-(5-(4-Chloro-3-fluorophenyl)pyridin-2-yl)-2-(2,4-difluorophenyl)-1,1-difluoro-3-(1H-tetrazol-1-yl)propan-2-ol], the MIC was in the range of 1.5 to 4 µg/mL (≈ 3.11 to 8.3 µM).
For the compound `Oc1cccc(-c2ccc(C(F)(F)C(O)(Cn3cnnn3)c3ccc(F)cc3F)nc2)c1` (stereo not drawn) [Example 30, 3-(6-(2-(2,4-Difluorophenyl)-1,1-difluoro-2-hydroxy-3-(1H-tetrazol-1-yl)propyl)pyridin-3-yl)phenol], the MIC was less than 0.5 µg/mL.
As to `OC(Cn1cnnn1)(c1ccc(F)cc1F)C(F)(F)c1ccc(-c2cccc(C(F)(F)F)c2)cn1` (stereo not drawn) [Example 31, 2-(2,4-Difluorophenyl)-1,1-difluoro-3-(1H-tetrazol-1-yl)-1-(5-(3-(trifluoromethyl)phenyl)pyridin-2-yl)propan-2-ol], the MIC fell in the range of 0.5 to 1.5 µg/mL (≈ 1.01 to 3.02 µM).
On to `O=[N+]([O-])c1ccc(-c2ccc(C(F)(F)C(O)(Cn3cnnn3)c3ccc(F)cc3F)nc2)cc1` (stereo not drawn) [Example 32, 2-(2,4-Difluorophenyl)-1,1-difluoro-1-(5-(4-nitrophenyl)pyridin-2-yl)-3-(1H-tetrazol-1-yl)propan-2-ol], for which the MIC lay in the range of 0.5 to 1.5 µg/mL (≈ 1.05 to 3.16 µM).
For the compound `O=C(c1ccc(-c2ccc(C(F)(F)C(O)(Cn3cnnn3)c3ccc(F)cc3F)nc2)cc1)C(F)(F)F` (stereo not drawn) [Example 33, 1-(4-(6-(2-(2,4-Difluorophenyl)-1,1-difluoro-2-hydroxy-3-(1H-tetrazol-1-yl)propyl)pyridin-3-yl)phenyl)-2,2,2-trifluoroethanone], the MIC was in the range of 0.5 to 1.5 µg/mL (≈ 0.952 to 2.86 µM).
For `OC(Cn1cnnn1)(c1ccc(Cl)cc1F)C(F)(F)c1ccc(-c2ccc(OC(F)(F)F)cc2)cn1` (stereo not drawn) [Example 34, 2-(4-Chloro-2-fluorophenyl)-1,1-difluoro-3-(1H-tetrazol-1-yl)-1-(5-(4-(trifluoromethoxy)phenyl)pyridin-2-yl)propan-2-ol] the value was less than 0.5 µg/mL; for `OC(Cn1cnnn1)(c1ccc(F)cc1F)C(F)(F)c1ccc(-c2ccccc2)cn1` (stereo not drawn) [Example 35, 2-(2,4-Difluorophenyl)-1,1-difluoro-1-(5-phenylpyridin-2-yl)-3-(1H-tetrazol-1-yl)propan-2-ol], less than 0.5 µg/mL.
`OC(Cn1cnnn1)(c1ccc(F)cc1F)C(F)(F)c1ccc(-c2ccc(N3CCOCC3)cc2)cn1` (stereo not drawn) [Example 36, 2-(2,4-Difluorophenyl)-1,1-difluoro-1-(5-(4-morpholinophenyl)pyridin-2-yl)-3-(1H-tetrazol-1-yl)propan-2-ol]: the MIC was less than 0.5 µg/mL.
With `O=C(Nc1ccc(-c2ccc(C(F)(F)C(O)(Cn3cnnn3)c3ccc(F)cc3F)nc2)cc1)C(F)(F)F` (stereo not drawn) [Example 37, N-(4-(6-(2-(2,4-Difluorophenyl)-1,1-difluoro-2-hydroxy-3-(1H-tetrazol-1-yl)propyl)pyridin-3-yl)phenyl)-2,2,2-trifluoroacetamide], the MIC was less than 0.5 µg/mL.
The result for `OC(Cn1cnnn1)(c1ccc(F)cc1F)C(F)(F)c1ccc(-c2ccc(OC(F)F)cc2)cn1` (stereo not drawn) [Example 38, 1-(5-(4-(Difluoromethoxy)phenyl)pyridin-2-yl)-2-(2,4-difluorophenyl)-1,1-difluoro-3-(1H-tetrazol-1-yl)propan-2-ol] reads less than 0.5 µg/mL.
